According to BindingDB's records for patent WO2022070071 (JANSSEN BIOTECH, INC., 2022):

These compounds were tested against Dihydroorotate dehydrogenase (quinone), mitochondrial (Homo sapiens, UniProt Q02127) (assay: DHODH enzymatic assay).
Protocol: To detect DHODH enzyme activities, dichloroindophenol (DCIP) is added as the final electron acceptor in the assay. DCIP can accept electrons from the reduced coenzyme Q generated in the assay, or from dihydroorotate (DHO) via FMN by binding presumably to the ubiquinone pocket. […] The assay buffer contained […], pH 7.5, 150 mM NaCl, 0.5 mM EDTA, and 0.1% Triton X-100 in MilliQ water. Substrate consisting of 20 mM DHO, 5mM CoQ6, and 1mM DCIP in assay buffer, initiates the reaction. […] Absorbance measurements were obtained using the BMG Phera Star plate-reading spectrophotomer. Purified human DHODH was purchased from Proteros (cat. No. PR-0044). Chemicals were purchased from Sigma-Aldrich, Teknova, and Avanti Polar Lipids. Liquid handling was performed using Labcyte Echo and Formulatrix Tempest.

Dihydroorotate dehydrogenase (quinone), mitochondrial, sequence (Q02127 whole entry): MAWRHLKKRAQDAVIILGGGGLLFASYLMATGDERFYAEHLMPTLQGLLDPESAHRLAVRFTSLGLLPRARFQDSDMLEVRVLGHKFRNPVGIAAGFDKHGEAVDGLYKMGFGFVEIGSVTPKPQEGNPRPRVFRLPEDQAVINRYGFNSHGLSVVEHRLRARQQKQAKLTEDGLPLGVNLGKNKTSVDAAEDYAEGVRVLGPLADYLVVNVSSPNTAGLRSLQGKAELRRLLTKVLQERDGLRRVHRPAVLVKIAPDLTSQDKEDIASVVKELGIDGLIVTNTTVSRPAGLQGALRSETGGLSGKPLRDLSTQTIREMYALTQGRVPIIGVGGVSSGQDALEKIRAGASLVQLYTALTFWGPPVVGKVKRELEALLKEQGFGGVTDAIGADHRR

IC50	SMILES
2.11 nM	Cc1ccccc1-c1cc(C(C)C)c2cc(-c3cn(C)c(C(C)(C)O)n3)c(F)cn2c1=O [WO2022070071, Example 1]
2.69 nM	Cc1n[nH]c(Cl)c1-c1cc(C(C)C)c2cc(-c3cn(C)c(C(C)(C)O)n3)c(F)cn2c1=O [WO2022070071, Example 4]
2.1 nM	Cc1n[nH]c(Cl)c1-c1cc(C(C)C)c2cc(-c3nc(C(C)(C)O)n(C)n3)c(F)cn2c1=O [WO2022070071, Example 5]
4.07 nM	Cc1n[nH]c(C(F)(F)F)c1-c1cc(C(C)C)c2cc(-c3cn(C)c(C(C)(C)O)n3)c(F)cn2c1=O [WO2022070071, Example 6]
2.51 nM	Cc1n[nH]c(C(F)(F)F)c1-c1cc(C(C)C)c2cc(-c3nc(C(C)(C)O)n(C)n3)c(F)cn2c1=O [WO2022070071, Example 7]
13 nM	Cc1ccnc(Cl)c1-c1cc(C(C)C)c2cc(-c3cn(C)c(C(C)(C)O)n3)c(F)cn2c1=O [WO2022070071, Example 8]
13 nM	Cc1ccnc(Cl)c1-c1cc(C(C)C)c2cc(-c3nc(C(C)(C)O)n(C)n3)c(F)cn2c1=O [WO2022070071, Example 9]
